In PubChem BioAssay AID328 (DTP/NCI, 2004):
Several values for one entry are separate records, joined by “and”; a condition that tells them apart may be missing. Equal values may be shown once. Toxic doses and inconclusive results are not listed.

Tested on: BDF1 mice, P388 leukemia ip, median survival T/C
Test: NCI In Vivo Anticancer Drug Screen. Data for tumor model P388 Leukemia (intraperitoneal) in B6D2F1 (BDF1) mice
Details: endpoint: median survival time, higher = longer survival
Procedure, shortened: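 Each value expresses how treatment altered survival: treated-mouse outcome over vehicle-mouse outcome, both groups bearing the transplanted tumour.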

[1] = dose: 6.25 mg/kg/injection, schedule: Q01DX009 (ip), vehicle: saline with Tween-80
[2] = dose: 12.5 mg/kg/injection, schedule: Q01DX009 (ip), vehicle: saline with Tween-80
[3] = dose: 25.0 mg/kg/injection, schedule: Q01DX009 (ip), vehicle: saline with Tween-80
[4] = dose: 50.0 mg/kg/injection, schedule: Q01DX009 (ip), vehicle: saline with Tween-80
[5] = dose: 100.0 mg/kg/injection, schedule: Q01DX009 (ip), vehicle: saline with Tween-80
[6] = dose: 200.0 mg/kg/injection, schedule: Q01DX009 (ip), vehicle: saline with Tween-80
[7] = dose: 100.0 mg/kg/injection, schedule: Q04DX003 (ip), vehicle: saline with Tween-80
[8] = dose: 400.0 mg/kg/injection, schedule: Q01DX009 (ip), vehicle: saline with Tween-80

For `O.O.O=C(CC(=O)C(F)(F)F)C(F)(F)F.O=C(CC(=O)C(F)(F)F)C(F)(F)F.[Ni]`, the T/C (dose: 200.0 mg/kg/injection, schedule: Q01DX001 (ip), vehicle: Klucel (hydroxypropylcellulose) (HPC)) was 104 % of control.
In the case of `O=S(=O)(F)c1ccc(N=C=S)cc1`, the T/C [1] is reported as 120 % of control, the T/C [2] is reported as 116 % of control and the T/C [3] is reported as 112 % of control.
`O=C1Nc2ccc(Br)cc2C1=Nc1ccc(Cl)cc1` was tested, and the T/C [4] was 101 % of control, the T/C [5] was 105 % of control and the T/C [6] was 118 % of control.
For `CO/N=C/c1ccc([N+](=O)[O-])s1`, the T/C (dose: 12.0 mg/kg/injection, schedule: Q04DX003 (ip), vehicle: Klucel (hydroxypropylcellulose) (HPC)) was 118 % of control, the T/C (dose: 25.0 mg/kg/injection, schedule: Q01DX009 (ip), vehicle: Klucel (hydroxypropylcellulose) (HPC)) was 100 % of control and the T/C (dose: 25.0 mg/kg/injection, schedule: Q04DX003 (ip), vehicle: Klucel (hydroxypropylcellulose) (HPC)) was 113 % of control. The T/C (dose: 50.0 mg/kg/injection, schedule: Q01DX009 (ip), vehicle: Klucel (hydroxypropylcellulose) (HPC)) was 108 % of control, the T/C (dose: 50.0 mg/kg/injection, schedule: Q04DX003 (ip), vehicle: Klucel (hydroxypropylcellulose) (HPC)) was 104 % of control and the T/C (dose: 100.0 mg/kg/injection, schedule: Q01DX009 (ip), vehicle: Klucel (hydroxypropylcellulose) (HPC)) was 108 % of control.
`O=C1CCSC(=O)N1SC(Cl)(Cl)Cl` was tested, and the T/C (dose: 12.0 mg/kg/injection, schedule: Q01DX009 (ip), vehicle: saline with Tween-80) was 120 % of control, the T/C [3] was 110 % of control and the T/C [4] was 100 % of control.
`COC1CC(O)C(O)C(C)O1` (stereo not given) was tested, and the T/C [4] was 97 % of control, the T/C (dose: 50.0 mg/kg/injection, schedule: Q01DX009 (ip), vehicle: saline) was 100 % of control and the T/C [5] was 95 % of control. The T/C (dose: 100.0 mg/kg/injection, schedule: Q01DX009 (ip), vehicle: saline) was 107 % of control, the T/C [7] was 106 % of control and the T/C [6] was 100 % of control. For the same molecule, the T/C (dose: 200.0 mg/kg/injection, schedule: Q01DX009 (ip), vehicle: saline) was 118 % of control, the T/C (dose: 200.0 mg/kg/injection, schedule: Q04DX003 (ip), vehicle: saline with Tween-80) was 101 % of control and the T/C [8] was 95 % of control. The T/C (dose: 400.0 mg/kg/injection, schedule: Q01DX009 (ip), vehicle: saline) was 99 % of control and the T/C (dose: 400.0 mg/kg/injection, schedule: Q04DX003 (ip), vehicle: saline with Tween-80) was 99 % of control.
`O=C(Nc1ccccc1)c1c(O)[nH]c(=S)[nH]c1=O` was tested, and the T/C (dose: 50.0 mg/kg/injection, schedule: Q01DX005 (ip), vehicle: saline with Tween-80) was 194 % of control.
For `COC(=O)[C@H]1[C@H]2C[C@@H]3c4[nH]c5cc(OC)ccc5c4CCN3C[C@H]2C[C@@H](OC(=O)c2cc(OC)c(OC)c(OC)c2)[C@@H]1OC`, the T/C (dose: 0.37 mg/kg/injection, schedule: Q01DX009 (ip), vehicle: saline with Tween-80) was 95 % of control.
`COc1ccc(CC(=O)NCCc2ccccc2)cc1OC` was tested, and the T/C [2] was 112 % of control, the T/C (dose: 12.5 mg/kg/injection, schedule: Q04DX003 (ip), vehicle: saline with Tween-80) was 100 % of control and the T/C [3] was 104 % of control. The T/C (dose: 25.0 mg/kg/injection, schedule: Q04DX003 (ip), vehicle: saline with Tween-80) was 100 % of control, the T/C [4] was 110 % of control and the T/C (dose: 50.0 mg/kg/injection, schedule: Q04DX003 (ip), vehicle: saline with Tween-80) was 109 % of control. The T/C [7] was 99 % of control and 100 % of control.
`CN(C)C(=O)Nc1ccc(Cc2ccc(NC(=O)N(C)C)cc2)cc1` was tested, and the T/C [4] was 96 % of control, the T/C [5] was 99 % of control and the T/C [6] was 108 % of control. For the same molecule, the T/C [8] was 99 % of control.
With `CCOC(=O)/C=C(/C)SC1=CC(=O)c2ccccc2C1=O` the T/C (dose: 1.56 mg/kg/injection, schedule: Q01DX009 (ip), vehicle: saline with Tween-80) was 107 % of control and 113 % of control, the T/C (dose: 3.13 mg/kg/injection, schedule: Q01DX009 (ip), vehicle: saline with Tween-80) was 106 % of control and 107 % of control and the T/C [1] was 104 % of control and 117 % of control. For the same molecule, the T/C [2] was 107 % of control and 115 % of control.
In the case of `NC1=C(N2CC2)C(=O)C(N)=C(N2CC2)C1=O`, the T/C (dose: 100.0 micrograms/kg/injection, schedule: Q01DX009 (ip), vehicle: saline) is reported as 178 % of control.
